# Data as given in article PMC8646516 (CPT: Pharmacometrics & Systems Pharmacology, 2021).
# Like-named read-outs stand apart in the source and are kept apart here.
# Key:
# [1] = cited from earlier work
# [2] = samples >20 h postdose, median (IQR)
# [3] = system: hospitalized patients with COVID‐19; conditions: cited from earlier work
# [4] = cited from earlier work; remark: listed apart in the source
# [5] = imatinib N = 197 vs placebo N = 188
SMILES,Metabolite AUC as % of the parent AUC ([1]; formed by CYP3A4),Activity of the metabolite ([1]; relative to imatinib),Observed total imatinib plasma concentration Ctrough ([2]; COVID-19 subset 1 (model building)),Observed total imatinib plasma concentration Ctrough ([2]; COVID-19 subset 2 (validation set)),Premature treatment stop due to gastrointestinal (GI) toxicity ([3]; CounterCOVID),"Duration of invasive mechanical ventilation compared with placebo [3, 5]","Mortality compared with placebo [3, 5]",Protein bound in blood [4],Drug excreted by renal excretion [1],Drug excreted via the feces [1],Excreted unchanged ([1]; of the excreted drug),Bioavailability ([1]; oral)
Cc1ccc(NC(=O)c2ccc(CN3CCNCC3)cc2)cc1Nc1nccc(-c2cccnc2)n1 [N‐desmethyl imatinib],~ 10%,active,–,–,–,–,–,–,–,–,–,–
Cc1ccc(NC(=O)c2ccc(CN3CCN(C)CC3)cc2)cc1Nc1nccc(-c2cccnc2)n1 [imatinib],–,–,2156 (738–4179) µg/L,1791 (928.4–3204) µg/L,more imatinib treated patients stopped treatment prematurely,shorter,significantly lower,> 95%,13%,68%,25%,almost complete
